Laboratory results published in the supplement of paper PMC11451515.

System: P12-Ichikawa
Assay: cell viability relative to DMSO control; higher = less cytotoxic
Details: 48 h
How it was run: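 Viability is a per-plate percentage relative to DMSO wells, with cell-free wells as background. CellTiter-Glo One luminescence was read after 48 h at 37°C on 1536-well plates (5 μl) of NOMO1 or SEM (500 cells/well) or P12-Ichikawa (1000 cells/well) leukemia cells. The cells had been adapted for at least four passages in each medium and pin-dosed with library compounds in DMSO from 47 μM to 0.79 nM in 11 threefold steps.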

[1] = HPLM + 10% dialyzed FBS, 0.000781 µM
[2] = HPLM + 10% dialyzed FBS, 0.00234 µM
[3] = HPLM + 10% dialyzed FBS, 0.00702 µM
[4] = HPLM + 10% dialyzed FBS, 0.0211 µM
[5] = HPLM + 10% dialyzed FBS, 0.0632 µM
[6] = HPLM + 10% dialyzed FBS, 0.19 µM
[7] = HPLM + 10% dialyzed FBS, 0.569 µM
[8] = HPLM + 10% dialyzed FBS, 1.71 µM
[9] = HPLM + 10% dialyzed FBS, 5.12 µM
[10] = HPLM + 10% dialyzed FBS, 15.4 µM
[11] = HPLM + 10% dialyzed FBS, 46.1 µM
[12] = RPMI 5 mM glucose + 10% FBS, 0.000781 µM
[13] = RPMI 5 mM glucose + 10% FBS, 0.00234 µM
[14] = RPMI 5 mM glucose + 10% FBS, 0.00702 µM
[15] = RPMI 5 mM glucose + 10% FBS, 0.0211 µM
[16] = RPMI 5 mM glucose + 10% FBS, 0.0632 µM
[17] = RPMI 5 mM glucose + 10% FBS, 0.19 µM
[18] = RPMI 5 mM glucose + 10% FBS, 0.569 µM
[19] = RPMI 5 mM glucose + 10% FBS, 1.71 µM
[20] = RPMI 5 mM glucose + 10% FBS, 5.12 µM
[21] = RPMI 5 mM glucose + 10% FBS, 15.4 µM
[22] = RPMI 5 mM glucose + 10% FBS, 46.1 µM
[23] = RPMI 5 mM glucose + 10% dialyzed FBS, 0.000781 µM
[24] = RPMI 5 mM glucose + 10% dialyzed FBS, 0.00234 µM
[25] = RPMI 5 mM glucose + 10% dialyzed FBS, 0.00702 µM
[26] = RPMI 5 mM glucose + 10% dialyzed FBS, 0.0211 µM
[27] = RPMI 5 mM glucose + 10% dialyzed FBS, 0.0632 µM
[28] = RPMI 5 mM glucose + 10% dialyzed FBS, 0.19 µM
[29] = RPMI 5 mM glucose + 10% dialyzed FBS, 0.569 µM
[30] = RPMI 5 mM glucose + 10% dialyzed FBS, 1.71 µM
[31] = RPMI 5 mM glucose + 10% dialyzed FBS, 5.12 µM
[32] = RPMI 5 mM glucose + 10% dialyzed FBS, 15.4 µM
[33] = RPMI 5 mM glucose + 10% dialyzed FBS, 46.1 µM

| Structure (SMILES) | cell viability [1] | cell viability [2] | cell viability [3] | cell viability [4] | cell viability [5] | cell viability [6] | cell viability [7] | cell viability [8] | cell viability [9] | cell viability [10] | cell viability [11] | cell viability [12] | cell viability [13] | cell viability [14] | cell viability [15] | cell viability [16] | cell viability [17] | cell viability [18] | cell viability [19] | cell viability [20] | cell viability [21] | cell viability [22] | cell viability [23] | cell viability [24] | cell viability [25] | cell viability [26] | cell viability [27] | cell viability [28] | cell viability [29] | cell viability [30] | cell viability [31] | cell viability [32] | cell viability [33] |
| --- | --- | --- | --- | --- | --- | --- | --- | --- | --- | --- | --- | --- | --- | --- | --- | --- | --- | --- | --- | --- | --- | --- | --- | --- | --- | --- | --- | --- | --- | --- | --- | --- | --- |
| CN1\C(=C(\O)C2=CC=CC=C2[S+]1([O-])=O)C(=O)NC3=NC=C(C)S3 | 95% | 95.7% | 93.9% | 94.6% | 99.3% | 100% | 98.4% | 98.3% | 101% | 97.5% | 112% | 91.8% | 91.7% | 88% | 86% | 93.8% | 88.8% | 84.8% | 89% | 95.4% | 96.7% | 112% | 79.3% | 92.8% | 83.1% | 91.4% | 96.2% | 87% | 92.7% | 87.8% | 80.8% | 90% | 86.7% |
| O=C(O)c1ccc2c(c1)nc(Nc1cccc(Cl)c1)c1ccncc12 | 106% | 112% | 104% | 104% | 108% | 109% | 104% | 104% | 94.8% | 71.8% | 83.4% | 112% | 111% | 108% | 98.4% | 108% | 108% | 105% | 100% | 84.4% | 58.9% | 70.2% | 99.4% | 94.2% | 93.8% | 97.4% | 100% | 95.9% | 94.5% | 101% | 77.8% | 51.4% | 73% |
| O=C1c2c(O)ccc(O)c2C(=O)c2c(NCCNCCO)ccc(NCCNCCO)c21 | 101% | 105% | 108% | 110% | 104% | 99.7% | 6.68% | 36.9% | 8.95% | 7% | 5.91% | 96% | 101% | 96.7% | 124% | 107% | 94.3% | 4.89% | 32.4% | 5.93% | 5.48% | 5.03% | 97.5% | 96% | 98% | 106% | 106% | 102% | 8.07% | 45.4% | 9.1% | 7.62% | 9.05% |
| COC(=O)[C@@H]1[C@H]2C[C@H]3c4[nH]c5ccccc5c4CCN3C[C@@H]2CC[C@@H]1O | 113% | 118% | 122% | 116% | 122% | 128% | 121% | 117% | 20.8% | 14.4% | 12.4% | – | – | – | – | – | – | – | – | – | – | – | 103% | 114% | 114% | 124% | 111% | 124% | 127% | 128% | 70.6% | 32.9% | 17.9% |
| O=C(Nc1ccccc1-c1cn2c(CN3CCNCC3)csc2n1)c1cnc2ccccc2n1 | 84.5% | 89.8% | 89.3% | 84.4% | 90.1% | 88.3% | 85.3% | 84.5% | 83.9% | 75.3% | 0.861% | 80.4% | 85.3% | 83.6% | 85.2% | 86.5% | 86.1% | 79.8% | 76.2% | 82.9% | 67.9% | 1.29% | 83% | 84% | 80.3% | 80.5% | 78.1% | 87.4% | 78.4% | 78.7% | 77.8% | 69% | 1.1% |
| CCN1\C=C(\C(O)=O)C(=O)C2=CC=C(C)N=C12 | 88.3% | 93.8% | 101% | 96.3% | 101% | 93.7% | 105% | 97.6% | 95.7% | 105% | 93.6% | 79.7% | 82.3% | 90% | 90.1% | 84.6% | 89.3% | 89.7% | 90.6% | 88.8% | 98.8% | 97% | 77.2% | 90.6% | 87.1% | 91% | 96% | 88.6% | 86.4% | 87.4% | 91.3% | 92.4% | 90.1% |
| CSCC[C@@H](NC(=O)[C@@H](Cc1ccccc1)NC(=O)CNC(=O)CNC(=O)[C@@H](N)Cc1ccc(O)cc1)C(=O)O | 84.4% | 96.7% | 105% | 11% | 113% | 102% | 112% | 104% | 105% | 120% | 115% | 82.2% | 91.9% | 101% | 12.6% | 107% | 105% | 104% | 111% | 99.8% | 101% | 102% | 85.1% | 88.1% | 94.1% | 24.3% | 101% | 98.7% | 104% | 101% | 102% | 97.9% | 109% |
